The subject of assay [1] is AncCDT-5. To be noted: 50 mM Na2HPO4, 25 °C, 100 nM enzyme; prephenate dehydratase reaction.
Assay [2] concerns AncCDT-5. To be noted: 50 mM Na2HPO4, 25 °C, 100 nM enzyme.

From doi:10.1101/2022.09.13.507756v1 (biorxiv, 2022) come the findings set out here.

SMILES strings stand for the structures. Where two headings read alike, the source gives them in different places.

One may read the Km as the concentration of substrate that gives half-maximal velocity. With `O=C(O)C(=O)CC1(C(=O)O)C=CC(O)C=C1` (centres unmarked) [prephenate], the results for the Km in the assay on AncCDT-5 [1] and in the assay on AncCDT-5 [2] were 169 ± 22.9 µM and 178 ± 27.1 µM, respectively.
